This is an account of results in patent publication US9707267B2, “Beta-turn peptidomimetic cyclic compounds for treating dry eye” (Mimetogen Pharmaceuticals, Inc., priority 2008, dated 2017).

Assay [1] has as its system rat conjunctival goblet cells. The assay can be described thus: Glycoconjugate secretion from rat conjunctival goblet cells, ELLA (Example 1). The class given is cell-based. The conditions noted are these: 2 hours, mean±sem. The protocol: Cells derived from the explants were grown in RPMI 1640 supplemented with 10% fetal bovine serum (FBS) and penicillin (100 U/mL)/streptomycin (100 μg/mL) at 37° C. in a humidified 5% CO2-atmosphere for seventy-two hours. Contaminating nongoblet cells were removed by scraping them from the plate. During this time, goblet cells migrated from the pieces and began to proliferate. After one week, the goblet cells were trypsinized and plated in twenty-four well culture plates with RPMI-1640 media supplemented with 10% FBS.
To measure glycoconjugate secretion, the conjunctival goblet cells were grown to confluence and were serum deprived for two hours before addition of nerve growth factor (NGF), carbachol (Cch), compound D3, compound 3Aa and compound 3Ak for two hours. Compounds D3, 3Aa and 3Ak were administered at concentrations of 30 μm (micromolar), 10 μM, 1 μM and 0.3 μM. The vehicle used to dissolve the compounds, dimethyl sulfoxide (DMSO) was also included. DMSO was used as the basal control for the 30 μM concentration of compound, which was at 0.1% (v/v). The cholinergic agonist carbachol (Cch), added at 100 μM (micromolar), was a positive control for glycoconjugate secretion. The amount of glycoconjugate secreted into the media was measured by enzyme-linked lectin assay (ELLA). The media were collected and analyzed for amount of the lectin-detectable glycoconjugates, including mucins. The amount of secretion was measured by using the lectin UEA-I which is specific for rat conjunctival goblet cell mucins. Biotinylated UEA-I lectin and alkaline phosphatase-labeled streptavidin were used as described in Rios, J. D., et al., “Role of Neurotrophins and Neurotrophin Receptors in Rat Conjunctival Goblet Cell Secretion and Proliferation, Ophthalmology & Visual Science, 48: 1543-1551 (2007), the entire content of which is incorporated herein by reference. The cells were removed and sonicated, and the cell homogenate was analyzed for the total amount of protein by using the Bradford protein assay. […] Glycoconjugate secretion was expressed as the increase (x-fold) over basal.
Data for CGC glycoconjugate secretion and proliferation were expressed as the increase (x-fold) above basal value, which was standardized to 1.0. For example, for the 0.3 μM (micromolar), 1 μM and 10 μM doses, the CGC glycoconjugate secretion and proliferation were expressed as test compound over untreated cells. For the 30 μM dose, the CGC glycoconjugate secretion and proliferation were expressed as test compound over DMSO untreated cells. Results are expressed as the mean±sem.

The test system of assay [2] is Scopolamine Induced Rat Dry Eye Model. Description: Scopolamine induced rat dry eye model, tear fluorescein clearance (Example 5). The conditions noted are these: ± SD. In kind it is in vivo. The protocol: Dry eye was induced using scopolamine hydrobromide (Sigma-Aldrich, St. Louis, Mo.), which was continuously and systemically delivered to the animals via an osmotic pump (2ML4 Alzet®; CedarLane, Burlington, Ontario) filled with scopolamine and implanted subcutaneously in the mid dorsal area between the scapulae. Scopolamine was delivered for a twenty-eight day period at 12.5 mg/day, which translated to 30.0±1.5 mg/kg via osmotic pump.
Treatments for G2-G6 continued daily for seventeen days (up to an including day twenty-one). Thereafter, treatments were terminated but the study continued for another week. During treatment, each animal was anesthetized in an isoflurane chamber. Once asleep, each animal received a 5 μL topical instillation of test article into the lower conjunctival sac of both eyes using a calibrated micropipette. If a clinical endpoint was also being tested, the test article was topically instilled at the end of the testing.
[…] Tear fluorescein clearance was evaluated as described for humans (Alfonso, A. A., et al., “Correlation of Tear Fluorescein Clearance and Schirmer Test Scores with Ocular Irritation Symptoms,” Ophthalmology 106:803-810 (1999), which is incorporated herein by reference in its entirety) and modified for rats (Chen, W., et al., “Keratoconjunctivitis Sicca Modifies Epithelial Stem Cell Proliferation Kinetics in Conjunctiva,” Cornea 26:1101-1106 (2007), which is incorporated herein by reference in its entirety). Animals were lightly sedated with Isoflurane and two microliters of 1% sodium fluorescein (Sigma-Aldrich, St. Louis, Mo.) solution (in sterile saline) was applied to the lower conjunctival sac. The animals awoke within two minutes. After fifteen minutes, the animals were re-sedated and the fluorescein-stained tear fluid was collected with a phenol-red cotton thread (as described for Schirmer testing). The threads were immediately sealed in 1.5 mL polypropylene Eppendorf tubes shielded from light until fluorophotometric analysis. The volume of the collected tear fluid was determined by the length of cotton wetting in mm. After, 100 μl of phosphate-buffered saline (PBS) was added, the tubes were spun at 12,000 rpm for five minutes and the fluid transferred to a 96-well polystyrene microtiter plate (Corning Life Sciences #2592, Fisher Scientific, Nepean, Ontario). A standard well was prepared on each plate, which consisted of a phenol-red thread placed in 100 μl PBS containing 2 μl of 1% sodium fluorescein solution. Fluorescence was measured immediately using a fluorescence microplate reader (FLUOstar OPTIMA, BMG Labtech, Germany) after setting the gain to the standard well. The concentration of fluorescein in tears was calculated from the fluorescence units divided by the mm of cotton wetting (Fu/mm).

Consider `NCCCC[C@@H]1NC(=O)[C@H](CCC(=O)O)NC(=O)c2cc([N+](=O)[O-])ccc2OCCC(C(=O)NCC(=O)O)NC1=O` (some centres unmarked) [Compound D3], for which the CGC glycoconjugate secretion in assay [1] (0.3 μM) is given as 1.3±0.2 fold above basal; in assay [1] (1 μM) it was 1.6±0.2 fold above basal; in assay [1] (10 μM) it was 1.6±0.3 fold above basal; in assay [1] (30 μM, over DMSO basal), 1.7±0.7 fold above basal. Further, the “Tear Fluorescein Clearance” value in assay [2] (0.4% group, Day 2, before treatment start (day 5)) came out at 516 ± 305 FU/mm; in assay [2] (0.4% group, Day −1, baseline, before treatment start (day 5)), 288 ± 247 FU/mm; in assay [2] (0.4% topical 1× daily Days 5-21, Day 5 (test before first instillation)) it was 969 ± 732 FU/mm; in assay [2] (0.4% topical 1× daily Days 5-21, Day 7), 296 ± 156 FU/mm; in assay [2] (0.4% topical 1× daily Days 5-21, Day 14), 635 ± 599 FU/mm; in assay [2] (0.4% topical 1× daily Days 5-21, Day 20), 667 ± 508 FU/mm. The “Tear Fluorescein Clearance” value in assay [2] (1.0% group, Day 2, before treatment start (day 5)) is recorded as 880 ± 673 FU/mm; in assay [2] (1.0% group, Day −1, baseline, before treatment start (day 5)) it was 575 ± 682 FU/mm; in assay [2] (1.0% topical 1× daily Days 5-21, Day 5 (test before first instillation)), 550 ± 369 FU/mm; in assay [2] (1.0% topical 1× daily Days 5-21, Day 7), 1098 ± 639 FU/mm; in assay [2] (1.0% topical 1× daily Days 5-21, Day 14), 686 ± 306 FU/mm; in assay [2] (1.0% topical 1× daily Days 5-21, Day 20), 1067 ± 773 FU/mm. For the same compound, the “Tear Fluorescein Clearance” value was determined as 777 ± 592 FU/mm in assay [2] (2.5% group, Day 2, before treatment start (day 5)); 428 ± 312 FU/mm in assay [2] (2.5% group, Day −1, baseline, before treatment start (day 5)); 671 ± 344 FU/mm in assay [2] (2.5% topical 1× daily Days 5-21, Day 5 (test before first instillation)); 561 ± 231 FU/mm in assay [2] (2.5% topical 1× daily Days 5-21, Day 7); 791 ± 235 FU/mm in assay [2] (2.5% topical 1× daily Days 5-21, Day 14); 673 ± 170 FU/mm in assay [2] (2.5% topical 1× daily Days 5-21, Day 20).

On to “NGF: nerve growth factor (recombinant human), positive control”, for which the CGC glycoconjugate secretion in assay [1] (NGF, concentration not given) worked out at 1.3±0.1 fold above basal. In addition, the “Tear Fluorescein Clearance” value in assay [2] (0.00053% group, Day 2, before treatment start (day 5)) was 933 ± 824 FU/mm; in assay [2] (0.00053% group, Day −1, baseline, before treatment start (day 5)) it was 483 ± 562 FU/mm; in assay [2] (0.00053% topical 1× daily Days 5-21, Day 5 (test before first instillation)), 804 ± 432 FU/mm; in assay [2] (0.00053% topical 1× daily Days 5-21, Day 7), 1080 ± 572 FU/mm; in assay [2] (0.00053% topical 1× daily Days 5-21, Day 14), 1097 ± 1112 FU/mm; in assay [2] (0.00053% topical 1× daily Days 5-21, Day 20), 861 ± 414 FU/mm.
